This is an account of results in patent US11446287B2, “Compounds and methods for EP300 or CBP modulation and indications therefor” (Opna Immuno-Oncology SA, priority 2019, dated 2022).

For the assay, the target named is T1, Recombinant human EP300 containing the bromodomain (EP300-BD (1040-1161)) (Homo sapiens, UniProt Q09472).
T1 construct: Recombinant human EP300 bromodomain (EP300-BD (1040-1161)); made in house; host or cells: E. coli BL21-CodonPlus (DE3), modified pET vector
T1 sequence (Q09472 1040-1161): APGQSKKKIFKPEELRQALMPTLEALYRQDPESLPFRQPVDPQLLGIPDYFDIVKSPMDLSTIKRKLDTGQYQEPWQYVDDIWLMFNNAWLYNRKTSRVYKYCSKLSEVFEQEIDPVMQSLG
Nature of the assay: EP300 Alphascreen binding assay. Summed up:
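Displacement of a biotinylated acetyl-K56 histone H3 peptide from the N-His bromodomain construct (1040-1161) measured by AlphaScreen proximity, beads at 7.5 μg/ml final, read 60 min after addition. Protein, peptide and compound first incubated 1 h at room temperature, pH 7.5 HEPES buffer; IC50 by four-parameter logistic fit.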

`CCOc1cc(C(=O)O)cc(OCC)c1-n1cc(-c2cccc(Cl)c2)c2ncc(-c3c(C)noc3C)cc21` [P-0185, 4-(3-(3-chlorophenyl)-6-(3,5-dimethylisoxazol-4-yl)-1H-pyrrolo[3,2-b]pyridin-1-yl)-3,5-diethoxybenzoic acid]: the IC50 was 0.0001 to 1 µM.
In the case of `CCOc1cc(C(=O)O)cc(OCC)c1-n1cc(-c2ccc(F)cc2F)c2ncc(-c3c(C)noc3C)cc21` [P-0186, 4-(3-(2,4-difluorophenyl)-6-(3,5-dimethylisoxazol-4-yl)-1H-pyrrolo[3,2-b]pyridin-1-yl)-3,5-diethoxybenzoic acid] it was 0.0001 to 1 µM; in that of `CCOc1cc(C(=O)O)cc(OCC)c1-n1cc(Cc2ccccn2)c2ncc(-c3c(C)noc3C)cc21` [P-0187, 4-(6-(3,5-dimethylisoxazol-4-yl)-3-(pyridin-2-ylmethyl)-1H-pyrrolo[3,2-b]pyridin-1-yl)-3,5-diethoxybenzoic acid], 0.0001 to 1 µM; in that of `Cc1noc(C)c1-c1cnc2c(c1)c(-c1ccc(C(=O)O)cc1OC(F)(F)F)cn2-c1ccccc1` [P-0188, 4-(5-(3,5-dimethylisoxazol-4-yl)-1-phenyl-1H-pyrrolo[2,3-b]pyridin-3-yl)-3-(trifluoromethoxy)benzoic acid], 0.0001 to 1 µM.
Take `Cc1ccncc1-n1cc(-c2ccc(C(=O)O)cc2OC(F)(F)F)c2cc(-c3c(C)noc3C)cnc21` [P-0189, 4-(5-(3,5-dimethylisoxazol-4-yl)-1-(4-methylpyridin-3-yl)-1H-pyrrolo[2,3-b]pyridin-3-yl)-3-(trifluoromethoxy)benzoic acid]: the IC50 was 0.0001 to 1 µM.
The result for `CCOc1cc(C(=O)O)cc(OCC)c1-n1cc(CC2CCC2)c2ncc(-c3c(C)nnn3C)cc21` [P-0190, 4-(3-(cyclobutylmethyl)-6-(1,4-dimethyl-1H-1,2,3-triazol-5-yl)-1H-pyrrolo[3,2-b]pyridin-1-yl)-3,5-diethoxybenzoic acid] reads 0.0001 to 1 µM.
The result for `Cc1noc(C)c1-c1cnc2c(c1)c(-c1ccc(C(=O)O)cc1OC(F)(F)F)cn2CCN1CCOCC1` [P-0191, 4-(5-(3,5-dimethylisoxazol-4-yl)-1-(2-morpholinoethyl)-1H-pyrrolo[2,3-b]pyridin-3-yl)-3-(trifluoromethoxy)benzoic acid] reads 0.0001 to 1 µM.
The result for `CCOc1cc(C(=O)O)cc(OCC)c1-n1cc(-c2ccc(C3CC3)nc2)c2ncc(-c3c(C)noc3C)cc21` [P-0192, 4-(3-(6-cyclopropylpyridin-3-yl)-6-(3,5-dimethylisoxazol-4-yl)-1H-pyrrolo[3,2-b]pyridin-1-yl)-3,5-diethoxybenzoic acid] reads 0.0001 to 1 µM.
As for `CCOc1cc(C(=O)O)cc(OCC)c1-n1cc(-c2cncc(Cl)c2)c2ncc(-c3c(C)noc3C)cc21` [P-0193, 4-(3-(5-chloropyridin-3-yl)-6-(3,5-dimethylisoxazol-4-yl)-1H-pyrrolo[3,2-b]pyridin-1-yl)-3,5-diethoxybenzoic acid], the IC50 lay within 0.0001 to 1 µM.
The result for `CCOc1cc(C(=O)O)cc(OCC)c1-n1cc(-c2ccc(OC)cc2F)c2ncc(-c3c(C)noc3C)cc21` [P-0194, 4-(6-(3,5-dimethylisoxazol-4-yl)-3-(2-fluoro-4-methoxyphenyl)-1H-pyrrolo[3,2-b]pyridin-1-yl)-3,5-diethoxybenzoic acid] reads 0.0001 to 1 µM; that for `CCOc1cc(C(=O)O)cc(OCC)c1-n1cc(-c2cnn(C)c2)c2ncc(-c3c(C)noc3C)cc21` [P-0195, 4-(6-(3,5-dimethylisoxazol-4-yl)-3-(1-methyl-1H-pyrazol-4-yl)-1H-pyrrolo[3,2-b]pyridin-1-yl)-3,5-diethoxybenzoic acid], 0.0001 to 1 µM; that for `Cc1noc(C)c1-c1cnc2c(-c3ccccc3)cn(-c3ccc(C(=O)O)cc3OC(F)(F)F)c2c1` [P-0196, 4-(6-(3,5-dimethylisoxazol-4-yl)-3-phenyl-1H-pyrrolo[3,2-b]pyridin-1-yl)-3-(trifluoromethoxy)benzoic acid], 0.0001 to 1 µM.
The result for `Cc1noc(C)c1-c1cnc2c(c1)c(-c1c(Cl)cc(C(=O)O)cc1Cl)cn2[C@@H](C)c1ccccn1` [P-0197, (S)-3,5-dichloro-4-(5-(3,5-dimethylisoxazol-4-yl)-1-(1-(pyridin-2-yl)ethyl)-1H-pyrrolo[2,3-b]pyridin-3-yl)benzoic acid] reads 0.0001 to 1 µM.
The result for `Cc1noc(C)c1-c1cnc2c(c1)c(-c1c(Cl)cc(C(=O)O)cc1OC(F)(F)F)cn2C(C1CC1)C1CC1` [P-0198, 3-chloro-4-(1-(dicyclopropylmethyl)-5-(3,5-dimethylisoxazol-4-yl)-1H-pyrrolo[2,3-b]pyridin-3-yl)-5-(trifluoromethoxy)benzoic acid] reads 0.0001 to 1 µM; that for `Cc1noc(C)c1-c1cnc2c(c1)c(-c1ccc(C(=O)O)cc1OC(F)(F)F)cn2C(CC#N)C1CC1` (centres unmarked) [P-0199, 4-(1-(2-cyano-1-cyclopropylethyl)-5-(3,5-dimethylisoxazol-4-yl)-1H-pyrrolo[2,3-b]pyridin-3-yl)-3-(trifluoromethoxy)benzoic acid], 0.0001 to 1 µM; that for `Cc1noc(C)c1-c1cnc2c(c1)c(-c1ccc(C(=O)O)cc1OC(F)(F)F)cn2C(CC#N)C1CCCC1` (centres unmarked) [P-0200, 4-(1-(2-cyano-1-cyclopentylethyl)-5-(3,5-dimethylisoxazol-4-yl)-1H-pyrrolo[2,3-b]pyridin-3-yl)-3-(trifluoromethoxy)benzoic acid], 0.0001 to 1 µM.
For `CCOc1cc(C(=O)O)cc(OCC)c1-n1cc(-c2cnc(OC)nc2)c2ncc(-c3c(C)noc3C)cc21` [P-0201, 4-(6-(3,5-dimethylisoxazol-4-yl)-3-(2-methoxypyrimidin-5-yl)-1H-pyrrolo[3,2-b]pyridin-1-yl)-3,5-diethoxybenzoic acid], the IC50 lay in the range of 0.0001 to 1 µM.
In the case of `Cc1noc(C)c1-c1cnc2c(c1)c(-c1ccc(C(=O)O)cc1OC(F)(F)F)cn2S(=O)(=O)C1CC1` [P-0202, 4-(1-(cyclopropylsulfonyl)-5-(3,5-dimethylisoxazol-4-yl)-1H-pyrrolo[2,3-b]pyridin-3-yl)-3-(trifluoromethoxy)benzoic acid] it was 0.0001 to 1 µM; in that of `Cc1noc(C)c1-c1cnc2c(c1)c(-c1ccc(C(=O)O)cc1OC(F)(F)F)cn2-c1ccnc(C(C)C)c1` [P-0203, 4-(5-(3,5-dimethylisoxazol-4-yl)-1-(2-isopropylpyridin-4-yl)-1H-pyrrolo[2,3-b]pyridin-3-yl)-3-(trifluoromethoxy)benzoic acid], 0.0001 to 1 µM; in that of `Cc1noc(C)c1-c1cnc2c(c1)c(-c1ccc(C(=O)O)cc1OC(F)(F)F)cn2-c1cnccc1C#N` [P-0204, 4-(1-(4-cyanopyridin-3-yl)-5-(3,5-dimethylisoxazol-4-yl)-1H-pyrrolo[2,3-b]pyridin-3-yl)-3-(trifluoromethoxy)benzoic acid], 0.0001 to 1 µM.
The result for `CCOc1cc(C(=O)O)cc(F)c1-n1cc(-c2ccccc2)c2ncc(-c3c(C)noc3C)cc21` [P-0205, 4-(6-(3,5-dimethylisoxazol-4-yl)-3-phenyl-1H-pyrrolo[3,2-b]pyridin-1-yl)-3-ethoxy-5-fluorobenzoic acid] reads 0.0001 to 1 µM; that for `CCOc1cccc(C#N)c1-n1cc(-c2ccccc2)c2ncc(-c3c(C)noc3C)cc21` [P-0206, 2-(6-(3,5-dimethylisoxazol-4-yl)-3-phenyl-1H-pyrrolo[3,2-b]pyridin-1-yl)-3-ethoxybenzonitrile], 0.0001 to 1 µM; that for `Cc1noc(C)c1-c1cnc2c(-c3ccccc3)cn(-c3c(Cl)cccc3C#N)c2c1` [P-0207, 3-chloro-2-(6-(3,5-dimethylisoxazol-4-yl)-3-phenyl-1H-pyrrolo[3,2-b]pyridin-1-yl)benzonitrile], 1 to 8 µM.
In the case of `CCOc1cc(C(=O)O)cc(OCC)c1-n1cc(C2=CCC(F)(F)CC2)c2ncc(-c3c(C)noc3C)cc21` [P-0208, 4-(3-(4,4-difluorocyclohex-1-en-1-yl)-6-(3,5-dimethylisoxazol-4-yl)-1H-pyrrolo[3,2-b]pyridin-1-yl)-3,5-diethoxybenzoic acid] it was 0.0001 to 1 µM.
As to `CCOc1cc(C(=O)O)cc(OCC)c1-n1cc(-c2ccc(F)c(Cl)c2)c2ncc(-c3c(C)noc3C)cc21` [P-0209, 4-(3-(3-chloro-4-fluorophenyl)-6-(3,5-dimethylisoxazol-4-yl)-1H-pyrrolo[3,2-b]pyridin-1-yl)-3,5-diethoxybenzoic acid], the IC50 was 0.0001 to 1 µM.
The result for `CCOc1cc(C(=O)O)cc(OCC)c1-n1cc(CC2CCC2)c2ncc(-c3c(COC)noc3C)cc21` [P-0210, 4-(3-(cyclobutylmethyl)-6-(3-(methoxymethyl)-5-methylisoxazol-4-yl)-1H-pyrrolo[3,2-b]pyridin-1-yl)-3,5-diethoxybenzoic acid] reads 0.0001 to 1 µM.
The result for `Cc1cnccc1-n1cc(-c2ccc(C(=O)O)cc2OC(F)(F)F)c2cc(-c3c(C)noc3C)cnc21` [P-0211, 4-(5-(3,5-dimethylisoxazol-4-yl)-1-(3-methylpyridin-4-yl)-1H-pyrrolo[2,3-b]pyridin-3-yl)-3-(trifluoromethoxy)benzoic acid] reads 0.0001 to 1 µM; that for `Cc1noc(C)c1-c1cnc2c(c1)c(-c1ccc(C(=O)O)cc1OC(F)(F)F)cn2C1CCS(=O)(=O)CC1` [P-0212, 4-(5-(3,5-dimethylisoxazol-4-yl)-1-(1,1-dioxidotetrahydro-2H-thiopyran-4-yl)-1H-pyrrolo[2,3-b]pyridin-3-yl)-3-(trifluoromethoxy)benzoic acid], 0.0001 to 1 µM.
Regarding `Cc1noc(C)c1-c1cnc2c(c1)c(-c1ccc(C(=O)O)cc1OC(C)C)cn2C(C1CC1)C1CC1` [P-0213, 4-(1-(dicyclopropylmethyl)-5-(3,5-dimethylisoxazol-4-yl)-1H-pyrrolo[2,3-b]pyridin-3-yl)-3-isopropoxybenzoic acid], the IC50 was in the range of 0.0001 to 1 µM.
